Measurements taken from patent US20060257448A1, “Resorbable polymer composition, implant and method of making implant” (The University of Zurich, priority 2005, published 2006).

Test system: MC3T3-E1 cells
Experiment: Alkaline phosphatase activity (maturation) of MC3T3-E1 preosteoblastic cells
Format: cell-based
Details: increasing amounts of solvent (triacetin 0 to 6 mM); determined after 6 days; FIG. 2
Protocol: To compare the effect of various plasticizer regarding their osteogenetic effect to that of triacetin, MC3T3-E1 cells were grown in an alpha-modified Minimum Essential Medium (Life Technologies, Inc., Grand Island, N.Y.) containing 10% fetal calf serum (Life Technologies, Inc.), 50 μg/ml gentamycin, and 50 μg/ml ascorbic acid. To examine the action of triacetin on this cell line, 1×10^5 cells per well were plated in 6-well plates and triacetin subsequently added. Medium exchange was performed after 3 days and alkaline phosphatase (ALP) was determined according to Lowry, O. et al. [J. Biol. Chem. 207 (1954) 19-37]: p-nitrophenol liberated was converted to p-nitrophenylate by adding 400 μl of 1 M NaOH, which was quantitated by measuring the absorbance at 410 nm (epsilon=17500/mol×cm). Alkaline phosphatase activity was normalized to total protein and expressed as nmol nitrophenylate generated per min per mg protein.
MC3T3-E1 cells were treated with increasing amounts of different solvents and the effect on the maturation of MC3T3-E1 cells determined after 6 days by alkaline phosphatase activity.

SMILES	Maturation of MC3T3-E1 cells determined by alkaline phosphatase activity
CN(C)C=O [N,N-dimethylformamide]	no positive effect
C[S+](C)[O-] [dimethylsulfoxide]	no positive effect
CCO [ethanol]	no positive effect
CO [methanol]	no positive effect
CC(=O)OCC(COC(C)=O)OC(C)=O [triacetin, 1,2,3-Triacetoxypropane]	increases in a concentration dependent manner
